Laboratory results taken from patent US12655116B2, “Substituted isophthalic acid diamides” (Bayer Aktiengesellschaft, priority 2020, dated 2026).

Key:
MATIN [1] = experiment: Post-emergence herbicidal action against MATIN; type: in vivo, Matricaria inodora
In short: (§1)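 Weeds in sandy loam soil received a post-emergence spray at the one-leaf stage. Compounds were applied as WP or EC in water, 600 to 800 l/ha, with 0.2% wetting agent. Activity in % was judged visually after roughly 3 weeks against untreated plants.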

DIGSA [2] = experiment: Pre-emergence herbicidal action against DIGSA; type: in vivo, Digitaria sanguinalis
In short: (§2)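 Visual rating at 3 weeks vs untreated pots; 0–100% scale, 100% = plants died. Treatment: aqueous WP/EC spray onto covering soil, 600–800 l/ha, 0.2% wetter, seeds in sandy loam.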

STEME [3] = experiment: Post-emergence herbicidal action against STEME; type: in vivo, Stellaria media
Experimental: Seeds of monocotyledonous and dicotyledonous weed and crop plants are laid out in sandy loam soil in wood-fiber pots, covered with soil and cultivated in a greenhouse under good growth conditions. 2 to 3 weeks after sowing, the test plants are treated at the one-leaf stage. The compounds of the invention, formulated in the form of wettable powders (WP) or as emulsion concentrates (EC), are then sprayed onto the green parts of the plants in the form of an aqueous suspension or emulsion at a water application rate equivalent to 600 to 800 l/ha, with addition of 0.2% wetting agent. After the test plants have been left to stand in the greenhouse under optimal growth conditions for about 3 weeks, the action of the preparations is assessed visually in comparison to untreated controls (herbicidal action in percent (%): 100% activity=the plants have died, 0% activity=like control plants). […] The tables below illustrate, in an illustrative manner, the post-emergence herbicidal action of the compounds of the invention, the herbicidal activity being stated in percent.

MATIN [4] = experiment: Pre-emergence herbicidal action against MATIN; type: in vivo, Matricaria inodora
In short: as §2

STEME [5] = experiment: Pre-emergence herbicidal action against STEME; type: in vivo, Stellaria media
In short: as §2

SETVI [6] = experiment: Post-emergence herbicidal action against SETVI; type: in vivo, Setaria viridis; settings: dosage 20 g/ha
In short: as §1

VIOTR [7] = experiment: Pre-emergence herbicidal action against VIOTR; type: in vivo, Viola tricolor
In short: as §2

DIGSA [8] = experiment: Post-emergence herbicidal action against DIGSA; type: in vivo, Digitaria sanguinalis; settings: for Post-emergence action against DIGSA: 20 g/ha
In short: as §1

PHBPU [9] = experiment: Pre-emergence herbicidal action against PHBPU; type: in vivo, Pharbitis purpurea; settings: dosage 80 g/ha
In short: as §2

VIOTR [10] = experiment: Post-emergence herbicidal action against VIOTR; type: in vivo, Viola tricolor
In short: as §1

PHBPU [11] = experiment: Post-emergence herbicidal action against PHBPU; type: in vivo, Pharbitis purpurea
In short: as §1

ALOMY = experiment: Pre-emergence herbicidal action against ALOMY; type: in vivo, Alopecurus myosuroides; settings: 80 g/ha, pre-emergence, scored visually after 3 weeks vs untreated controls (100% = plants have died, 0% = like control plants)
In short: as §2

ABUTH [12] = experiment: Pre-emergence herbicidal action against ABUTH; type: in vivo, Abutilon theophrasti; settings: for Pre-emergence action against ABUTH (herbicidal activity): 80 g/ha, scored visually after 3 weeks vs untreated controls (100% = plants have died, 0% = like control plants); for Pre-emergence action against ABUTH (herbicidal activity in percent): dosage 20 g/ha, scored visually after 3 weeks vs untreated controls, 100% = plants have died, 0% = like control plants
In short: as §2

AVEFA [13] = experiment: Pre-emergence herbicidal action against AVEFA; type: in vivo, Avena fatua; settings: 80 g/ha, pre-emergence
In short: as §2

VERPE [14] = experiment: Pre-emergence herbicidal action against VERPE; type: in vivo, Veronica persica; settings: dosage 80 g/ha
In short: as §2

AVEFA [15] = experiment: Post-emergence herbicidal action against AVEFA; type: in vivo, Avena fatua; settings: 20 g/ha, visual assessment about 3 weeks after treatment, 100% = plants have died, 0% = like control plants
In short: as §1

AMARE = experiment: Pre-emergence herbicidal action against AMARE; type: in vivo, Amaranthus retroflexus
In short: as §2

ABUTH [16] = experiment: Post-emergence herbicidal action against ABUTH; type: in vivo, Abutilon theophrasti; settings: visual assessment about 3 weeks after treatment vs untreated controls
In short: as §1

SETVI [17] = experiment: Pre-emergence herbicidal action against SETVI; type: in vivo, Setaria viridis; settings: dosage 80 g/ha
In short: as §2

ECHCG [18] = experiment: Post-emergence herbicidal action against ECHCG; type: in vivo, Echinochloa crus-galli
In short: as §1

VERPE [19] = experiment: Post-emergence herbicidal action against VERPE; type: in vivo, Veronica persica; settings: 20 g/ha
In short: as §1

ECHCG [20] = experiment: Pre-emergence herbicidal action against ECHCG; type: in vivo, Echinochloa crus-galli; settings: 80 g/ha
In short: as §2

[21] = 20 g/ha, scored visually after 3 weeks vs untreated controls, 100% = plants have died, 0% = like control plants
[22] = 80 g/ha, scored visually after 3 weeks vs untreated controls (100% = plants have died, 0% = like control plants)

CCCn1nnnc1NC(=O)c1ccc(C(F)(F)F)c(C(=O)NC2CC2)c1C [Example 3-27]
90%: Post-emergence action against MATIN in % (MATIN [1]; dosage 5 g/ha) | Post-emergence action against SETVI in % (SETVI [6]) | Pre-emergence action against VIOTR in % (VIOTR [7]; dosage 20 g/ha) | Pre-emergence action against PHBPU in % (PHBPU [9]) | Post-emergence action against PHBPU in % (PHBPU [11]; dosage 5 g/ha) | Pre-emergence action against ALOMY (herbicidal activity) (ALOMY) | Pre-emergence action against AVEFA in % (AVEFA [13]) | Pre-emergence action against VERPE in % (VERPE [14]) | Post-emergence action at 20 g/ha against AVEFA in % (AVEFA [15])
100%: Post-emergence action against MATIN in % (MATIN [1]; dosage 20 g/ha) | Pre-emergence action against DIGSA in % (DIGSA [2]; dosage 80 g/ha) | Pre-emergence action against MATIN in % (MATIN [4]; dosage 20 g/ha) | Pre-emergence action against MATIN in % (MATIN [4]; dosage 80 g/ha) | Pre-emergence action against STEME in % (STEME [5]; dosage 20 g/ha) | Pre-emergence action against STEME in % (STEME [5]; dosage 80 g/ha) | Pre-emergence action against VIOTR in % (VIOTR [7]; dosage 80 g/ha) | Post-emergence action against DIGSA (DIGSA [8]) | Post-emergence action against VIOTR in % (VIOTR [10]; 20 g/ha) | Post-emergence action against PHBPU in % (PHBPU [11]; dosage 20 g/ha) | Pre-emergence action against ABUTH (herbicidal activity) (ABUTH [12]) | Pre-emergence action against ABUTH (herbicidal activity in percent) (ABUTH [12]) | Pre-emergence action against AMARE in % (AMARE; [21]) | Pre-emergence action against AMARE in % (AMARE; [22]) | Post-emergence action against ABUTH in % (ABUTH [16]; dosage 20 g/ha)
80%: Post-emergence action against STEME in % (STEME [3]; 20 g/ha) | Post-emergence action against VIOTR in % (VIOTR [10]; 5 g/ha)

CCCn1nnnc1NC(=O)c1ccc(C(F)(F)F)c(C(=O)NC2CC2)c1CC [Example 3-273]
100%: Pre-emergence action against DIGSA in % (DIGSA [2]; dosage 80 g/ha) | Pre-emergence action against SETVI in % (SETVI [17]) | Pre-emergence action against MATIN in % (MATIN [4]; dosage 80 g/ha) | Pre-emergence action against STEME in % (STEME [5]; dosage 80 g/ha) | Pre-emergence action against VIOTR in % (VIOTR [7]; dosage 20 g/ha) | Pre-emergence action against VIOTR in % (VIOTR [7]; dosage 80 g/ha) | Pre-emergence action against ABUTH (herbicidal activity) (ABUTH [12]) | Pre-emergence action against VERPE in % (VERPE [14]) | Pre-emergence action against AMARE in % (AMARE; [21]) | Pre-emergence action against AMARE in % (AMARE; [22])
90%: Post-emergence action against MATIN in % (MATIN [1]; dosage 20 g/ha) | Pre-emergence action against DIGSA in % (DIGSA [2]; dosage 20 g/ha) | Post-emergence action against STEME in % (STEME [3]; 20 g/ha) | Pre-emergence action against MATIN in % (MATIN [4]; dosage 20 g/ha) | Pre-emergence action against STEME in % (STEME [5]; dosage 20 g/ha) | Post-emergence action against DIGSA (DIGSA [8]) | Pre-emergence action against PHBPU in % (PHBPU [9]) | Pre-emergence action against ABUTH (herbicidal activity in percent) (ABUTH [12]) | Pre-emergence action against AVEFA in % (AVEFA [13]) | Post-emergence action against ABUTH in % (ABUTH [16]; dosage 20 g/ha)
80%: Post-emergence action against MATIN in % (MATIN [1]; dosage 5 g/ha) | Post-emergence action against STEME in % (STEME [3]; dosage 5 g/ha) | Post-emergence action against SETVI in % (SETVI [6]) | Post-emergence action against ECHCG in % (ECHCG [18]; dosage 5 g/ha) | Post-emergence action against ECHCG in % (ECHCG [18]; dosage 20 g/ha) | Post-emergence action against DIGSA in % (DIGSA [8]; 5 g/ha) | Post-emergence action against PHBPU in % (PHBPU [11]; dosage 20 g/ha) | Post-emergence action against VERPE in % (VERPE [19]) | Post-emergence action at 20 g/ha against AVEFA in % (AVEFA [15]) | Pre-emergence action against ECHCG in % (ECHCG [20]) | Post-emergence action against ABUTH in % (ABUTH [16]; dosage 5 g/ha)
